Results as given in patent US12636297B2, “Boronic acid derivatives and therapeutic uses thereof” (priority 2019, dated 2026).
Where two headings read alike, the source gives them in different places.

Legend:
[1] = tested on: carbapenem resistant Enterobacteriaceae (CRE); experiment: MIC of antibiotics with Compound 1 against panel of 510 CRE clinical isolates; assay type: cell-based; details: for MIC50 / MIC90: antibiotic alone
Method: In this example, the antibiotics meropenem, cefepime, ceftolozane and cefiderocol, were tested in combination with Compound 1 at 4 μg/ml and 8 μg/ml against a panel of 510 clinical isolates representing various types of carbapenem resistant Enterobacteriaceae (CRE). Cefiderocol was tested at standard conditions, in […] media.

P. aeruginosa = experiment: Susceptibility testing of 262 P. aeruginosa strains with meropenem MIC >2 μg/mL; assay type: cell-based, Pseudomonas aeruginosa; details: Compound 1 at 8 μg/mL; for % of susceptible organisms at breakpoints: breakpoints ≤8 μg/mL meropenem and cefepime, ≤4 μg/mL ceftolozane, ≤16 μg/mL piperacillin
Method: (§1) In addition, 509 Carbapenem-Resistant Enterobacteriaceae were tested with meropenem, cefepime, and ceftolozane alone and in combination with Compound 1 at 8 μg/mL. Furthermore, 262 strains of P. aeruginosa with a meropenem MIC>2 μg/mL were tested with meropenem, ceftolozane, cefepime and piperacillin alone and in combination with Compound 1 at 8 μg/mL.
262 strains of P. aeruginosa having a meropenem MIC greater than 2 μg/mL were tested with meropenem, ceftolozane, cefepime and piperacillin alone and Compound 1 at 8 μg/mL.

[2] = tested on: Carbapenem-Resistant Enterobacteriaceae; experiment: MIC distribution for 509 Carbapenem-Resistant Enterobacteriaceae (FIG. 2); assay type: cell-based; details: Compound 1 at 8 μg/mL
Method: as §1
The MIC distribution of combinations of Compound 1 with meropenem, cefepime and cetolozane alone, or with Compound 1 at 8 μg/mL for Carbapenem-Resistant Enterobacteriaceae were tested.

[3] = tested on: carbapenem resistant Acinetobacter baumannii; experiment: MIC of antibiotics with Compound 1 against panel of 503 carbapenem resistant Acinetobacter baumannii clinical isolates; assay type: cell-based; details: for MIC50 / MIC90: carbapenem resistant Acinetobacter baumannii (N = 503), antibiotic alone
Method: In another experiment, various antibiotics, meropenem, cefepime, ceftolozane and cefiderocol, were tested in combination with Compound 1 at 4 μg/ml and 8 μg/ml against the panel of 503 clinical isolates of carbapenem resistant Acinetobacter baumannii. […] Cefiderocol was tested at standard conditions, in […] media.

[4] = tested on: carbapenem-resistant (CR) Acinetobacter baumannii (AB); experiment: Broth microdilution MIC of β-lactams alone and with Compound 1 against carbapenem-resistant Acinetobacter baumannii clinical isolates; assay type: cell-based; details: for MIC: SUL alone; for % susceptible, [S]: breakpoints MER ≤8 μg/mL, TOL ≤4 μg/mL
Method: (§2) In this example the in vitro activity of Compound 1 was evaluated in combination with several β-lactams including sulbactam, meropenem, and ceftolozane against clinical isolates of carbapenem-resistant (CR) Acinetobacter baumannii (AB) and Pseudomonas aeruginosa (PA).

[5] = tested on: Pseudomonas aeruginosa (PA); experiment: Broth microdilution MIC of β-lactams alone and with Compound 1 against Pseudomonas aeruginosa clinical isolates (representative and challenge panels); assay type: cell-based; details: for Minimum Inhibitory Concentration Distribution, % of isolates: representative panel of PA (N = 500), without Compound 1, AVI and TAZ at 4 μg/mL; for % susceptible, [S] / MIC50 / MIC90: Compound 1, AVI, and TAZ at fixed 4 μg/mL; for % susceptible, [S]: breakpoints MER ≤8, TOL ≤4, CAZ ≤8 μg/mL; for MIC50 / MIC90: Pseudomonas aeruginosa
Method: as §2

[6] = non-carbapenemase producing CRE, N = 45
[7] = CRAB (300), Compound 1 at fixed 4 μg/mL

O=C(O)c1c(F)ccc2c1OB(O)[C@@H]1C[C@H]21 [Compound 1, 5-Fluoro-2-hydroxy-1a,7b-dihydro-1H-cyclopropa[c][1,2]benzoxaborinine-4-carboxylic acid]
Effect on MIC90 of antibiotics ([1]; Compound 1 at 4 and 8 μg/ml, 510 CRE clinical isolates): shifted MIC90 of all antibiotics (except ceftolozane tested against metallo beta-lactamases, MBL) into susceptible range
Effect on proportion of susceptible P. aeruginosa (P. aeruginosa; 262 strains with meropenem MIC >2 μg/mL): increased the proportion of susceptible organisms for all tested agents
Effect on potency of meropenem, cefepime and ceftolozane (MIC distribution, FIG. 2) [2]: significantly increased potency of all tested antibiotics
Effect on potency of antibiotics ([3]; Compound 1 at 4 and 8 μg/ml, 503 carbapenem resistant A. baumannii isolates): significantly enhances the potency of meropenem and cefiderocol

CC(C)(O/N=C(\C(=O)N[C@@H]1C(=O)N2C(C(=O)[O-])=C(C[N+]3(CCNC(=O)c4ccc(O)c(O)c4Cl)CCCC3)CS[C@H]12)c1csc(N)n1)C(=O)O [DER, cefiderocol]
MIC50 ([1]; CRE KPC, N = 168): 2 µg/mL
MIC90 ([1]; CRE KPC, N = 168): 32 µg/mL
MIC50 ([1]; CRE MBL, N = 145): 8 µg/mL
MIC90 ([1]; CRE MBL, N = 145): > 32 µg/mL
MIC50 ([1]; CRE OXA, N = 152): 1 µg/mL
MIC90 ([1]; CRE OXA, N = 152): 8 µg/mL
MIC50 [1, 6]: 2 µg/mL
MIC90 [1, 6]: 32 µg/mL
MIC50 [3]: 1 µg/mL
MIC90 [3]: 32 µg/mL

CO/N=C(\C(=O)N[C@@H]1C(=O)N2C(C(=O)[O-])=C(C[N+]3(C)CCCC3)CS[C@H]12)c1csc(N)n1 [FEP, cefepime]
MIC50 ([1]; CRE KPC, N = 168): 32 µg/mL
MIC90 ([1]; CRE KPC, N = 168): > 32 µg/mL
MIC50 ([1]; CRE MBL, N = 145): > 32 µg/mL
MIC90 ([1]; CRE MBL, N = 145): > 32 µg/mL
MIC50 ([1]; CRE OXA, N = 152): > 32 µg/mL
MIC90 ([1]; CRE OXA, N = 152): > 32 µg/mL
MIC50 [1, 6]: > 32 µg/mL
MIC90 [1, 6]: > 32 µg/mL
% of susceptible organisms at breakpoints (P. aeruginosa; All strains (N = 262), meropenem MIC >2 μg/mL): 20%
% of susceptible organisms at breakpoints (P. aeruginosa; MBL (N = 56)): 4%
% of susceptible organisms at breakpoints (P. aeruginosa; No MBL (N = 206)): 24%
MIC50 [3]: > 32 µg/mL
MIC90 [3]: > 32 µg/mL

CC1(C)[C@H](C(=O)O)N2C(=O)C[C@H]2S1(=O)=O [SUL, sulbactam]
MIC50 ([4]; Acinetobacter baumannii): > 32 µg/mL
MIC90 ([4]; Acinetobacter baumannii): > 32 µg/mL
MIC ([4]; Acinetobacter baumannii, read-out: Minimum Inhibitory Concentration, AB1144 (NDM-1)): > 64 µg/mL
MIC ([4]; Acinetobacter baumannii, read-out: Minimum Inhibitory Concentration, AB1192 (OXA-24, OXA-72)): 32 µg/mL
MIC ([4]; Acinetobacter baumannii, read-out: Minimum Inhibitory Concentration, AB1223 (OXA-72)): 4 µg/mL
MIC ([4]; Acinetobacter baumannii, read-out: Minimum Inhibitory Concentration, AB1227 (OXA-23)): 64 µg/mL
MIC ([4]; Acinetobacter baumannii, read-out: Minimum Inhibitory Concentration, AB1244 (OXA-23)): 64 µg/mL
MIC ([4]; Acinetobacter baumannii, read-out: Minimum Inhibitory Concentration, AB1291 (KPC-2)): > 64 µg/mL
MIC ([4]; Acinetobacter baumannii, read-out: Minimum Inhibitory Concentration, AB1307 (OXA-23)): 32 µg/mL
MIC ([4]; Acinetobacter baumannii, read-out: Minimum Inhibitory Concentration, AB1333 (OXA-239)): 16 µg/mL
MIC ([4]; Acinetobacter baumannii, read-out: Minimum Inhibitory Concentration, AB1358 (NDM-1)): > 64 µg/mL
MIC ([4]; Acinetobacter baumannii, read-out: Minimum Inhibitory Concentration, AB1359 (NDM-1)): > 64 µg/mL

Cn1c(N)c(NC(=O)NCCN)c[n+]1CC1=C(C(=O)O)N2C(=O)[C@@H](NC(=O)/C(=N\OC(C)(C)C(=O)[O-])c3nsc(N)n3)[C@H]2SC1 [TOL, ceftolozane]
% susceptible, [S] ([4]; AB CP (100), defined carbapenemases, Compound 1 at fixed 4 μg/mL): (0.0) %
MIC50 ([4]; Acinetobacter baumannii, AB CP (100), defined carbapenemases, Compound 1 at fixed 4 μg/mL, read-out: MIC50): > 32 µg/mL
MIC90 ([4]; Acinetobacter baumannii, AB CP (100), defined carbapenemases, Compound 1 at fixed 4 μg/mL, read-out: MIC90): > 32 µg/mL
MIC50 [4, 7]: >32/>32 μg/mL
MIC90 [4, 7]: >32/>32 μg/mL
% susceptible, [S] [4, 7]: (1.3) %
MIC50 ([1]; CRE KPC, N = 168): > 32 µg/mL
MIC90 ([1]; CRE KPC, N = 168): > 32 µg/mL
MIC50 ([1]; CRE MBL, N = 145): > 32 µg/mL
MIC90 ([1]; CRE MBL, N = 145): > 32 µg/mL
MIC50 ([1]; CRE OXA, N = 152): > 32 µg/mL
MIC90 ([1]; CRE OXA, N = 152): > 32 µg/mL
MIC50 [1, 6]: > 32 µg/mL
MIC90 [1, 6]: > 32 µg/mL
Minimum Inhibitory Concentration Distribution, % of isolates ([5]; MIC 0.125 μg/mL): 0.2%
Minimum Inhibitory Concentration Distribution, % of isolates ([5]; MIC 0.25 μg/mL): 2.8%
Minimum Inhibitory Concentration Distribution, % of isolates ([5]; MIC 0.5 μg/mL): 56.2%
Minimum Inhibitory Concentration Distribution, % of isolates ([5]; MIC 1 μg/mL): 77.4%
Minimum Inhibitory Concentration Distribution, % of isolates ([5]; MIC 2 μg/mL): 85.2%
Minimum Inhibitory Concentration Distribution, % of isolates ([5]; MIC 4 μg/mL): 90.4%
Minimum Inhibitory Concentration Distribution, % of isolates ([5]; MIC 8 μg/mL): 92.2%
Minimum Inhibitory Concentration Distribution, % of isolates ([5]; MIC 16 μg/mL): 93.0%
Minimum Inhibitory Concentration Distribution, % of isolates ([5]; MIC 32 μg/mL): 93.2%
Minimum Inhibitory Concentration Distribution, % of isolates ([5]; MIC >32 μg/mL): 100.0%
Minimum Inhibitory Concentration Distribution, % of isolates ([5]; MIC ≤0.06 μg/mL): 0.2%
% susceptible, [S] ([5]; PA (CAZ-AVI MIC >8) (37)): (18.2) %
% susceptible, [S] ([5]; PA (Challenge, 652)): (44.0) %
% susceptible, [S] ([5]; PA (MER MIC >2) (612)): (56.2) %
% susceptible, [S] ([5]; PA (Representative, 500)): (90.4) %
% susceptible, [S] ([5]; PA (TOL-TAZ MIC >4) (39)): (3.3) %
MIC50 ([5]; PA (CAZ-AVI MIC >8) (37)): > 32 µg/mL
MIC90 ([5]; PA (CAZ-AVI MIC >8) (37)): > 32 µg/mL
MIC50 ([5]; PA (Challenge, 652)): 16 µg/mL
MIC90 ([5]; PA (Challenge, 652)): > 32 µg/mL
MIC50 ([5]; PA (MER MIC >2) (612)): 4 µg/mL
MIC90 ([5]; PA (MER MIC >2) (612)): > 32 µg/mL
MIC50 ([5]; PA (Representative, 500)): 0.5 µg/mL
MIC90 ([5]; PA (Representative, 500)): 4 µg/mL
MIC50 ([5]; PA (TOL-TAZ MIC >4) (39)): > 32 µg/mL
MIC90 ([5]; PA (TOL-TAZ MIC >4) (39)): > 32 µg/mL
MIC50 [3]: > 32 µg/mL
MIC90 [3]: > 32 µg/mL
